≈ marks a conversion by molar mass, not a printed value.
What was measured:
Assay in all cases: in vitro antibacterial evaluation, MIC by broth dilution
Assay type in all cases: cell-based
Streptococcus sp. = conditions: broth dilution, 18 hours at 35° C.
How it was run: (§1)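 Step 1: dilute antibiotic across 64-0.06 μg/mL in Muller-Hinton II […]. Step 2: inoculate at 5×10^5 CFU/mL.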

Staphylococcus sp. = conditions: broth dilution, 18 hours at 35° C.; for MIC Staphylococcus aureus (GC 1131): strain GC 1131
How it was run: as §1

Enterococcus sp. = conditions: broth dilution, 18 hours at 35° C.
How it was run: as §1

Escherichia coli = conditions: 18 hours at 35° C.

MIC Streptococcus agalactiae (GC 4564) (Streptococcus sp.): 16 µg/mL (≈ 9.9 µM)
MIC Streptococcus pneumoniae (ATCC 6301) (Streptococcus sp.): 4 µg/mL (≈ 2.48 µM)
MIC Streptococcus pneumoniae (GC 1894) (Streptococcus sp.): 8 µg/mL (≈ 4.95 µM)
MIC Streptococcus pneumoniae (GC 4565) (Streptococcus sp.): 8 µg/mL (≈ 4.95 µM)
MIC Streptococcus pyogenes (GC 4563) (Streptococcus sp.): 16 µg/mL (≈ 9.9 µM)
MIC Streptococcus pneumoniae (ATCC 6301) (Streptococcus sp.; inoculum 5×10^5 CFU/mL, strain ATCC 6301): 4 µg/mL (≈ 2.48 µM)
MIC Streptococcus pneumoniae (GC 1894) (Streptococcus sp.; inoculum 5×10^5 CFU/mL, strain GC 1894): 8 µg/mL (≈ 4.95 µM)
MIC Streptococcus pyogenes (GC 4563) (Streptococcus sp.; inoculum 5×10^5 CFU/mL, strain GC 4563): 16 µg/mL (≈ 9.9 µM)
MIC Streptococcus agalactiae (GC 4564) (Streptococcus sp.; inoculum 5×10^5 CFU/mL, strain GC 4564): 16 µg/mL (≈ 9.9 µM)
MIC Streptococcus pneumoniae (GC 4565) (Streptococcus sp.; inoculum 5×10^5 CFU/mL, strain GC 4565): 8 µg/mL (≈ 4.95 µM)
MIC Staphylococcus aureus (GC 1131) (Staphylococcus sp.; inoculum 5×10^5 CFU/mL): 16 µg/mL (≈ 9.9 µM)
MIC Staphylococcus aureus (ATCC 29213) (Staphylococcus sp.; strain ATCC 29213): 32 µg/mL (≈ 19.8 µM)
MIC Staphylococcus aureus (GC 1131) (Staphylococcus sp.): 16 µg/mL (≈ 9.9 µM)
MIC Staphylococcus aureus (GC 3051) (Staphylococcus sp.; strain GC 3051): 64 µg/mL (≈ 39.6 µM)
MIC Staphylococcus aureus (GC 3053) (Staphylococcus sp.; strain GC 3053): 64 µg/mL (≈ 39.6 µM)
MIC Staphylococcus aureus (GC 4541) (Staphylococcus sp.; strain GC 4541): 16 µg/mL (≈ 9.9 µM)
MIC Staphylococcus aureus (GC 4542) (Staphylococcus sp.; strain GC 4542): 64 µg/mL (≈ 39.6 µM)
MIC Staphylococcus aureus-SMITH (GC 4543) (Staphylococcus sp.; strain GC 4543): 16 µg/mL (≈ 9.9 µM)
MIC Staphylococcus aureus (GC 4544) (Staphylococcus sp.; strain GC 4544): 32 µg/mL (≈ 19.8 µM)
MIC Staphylococcus aureus (GC 4545) (Staphylococcus sp.; strain GC 4545): 32 µg/mL (≈ 19.8 µM)
MIC Coagulase Negative Staphylococcus (GC 4547) (Staphylococcus sp.; strain GC 4547): 32 µg/mL (≈ 19.8 µM)
MIC Coagulase Negative Staphylococcus (GC 4548) (Staphylococcus sp.; strain GC 4548): 8 µg/mL (≈ 4.95 µM)
MIC Coagulase Negative Staphylococcus (GC 4549) (Staphylococcus sp.; strain GC 4549): 8 µg/mL (≈ 4.95 µM)
MIC Coagulase Negative Staphylococcus (GC 4551) (Staphylococcus sp.; strain GC 4551): 16 µg/mL (≈ 9.9 µM)
MIC Coagulase Negative Staphylococcus (GC 6257) (Staphylococcus sp.; strain GC 6257): 4 µg/mL (≈ 2.48 µM)
MIC Enterococcus avium (GC 4558) (Enterococcus sp.): 16 µg/mL (≈ 9.9 µM)
MIC Enterococcus faecalis (ATCC 29212) (Enterococcus sp.): >64 µg/mL
MIC Enterococcus faecalis (GC 2242) (Enterococcus sp.): >64 µg/mL
MIC Enterococcus faecalis (GC 2691) (Enterococcus sp.): >64 µg/mL
MIC Enterococcus faecalis (GC 3059) (Enterococcus sp.): >64 µg/mL
MIC Enterococcus faecalis (GC 4552) (Enterococcus sp.): >64 µg/mL
MIC Enterococcus faecalis (GC 4553) (Enterococcus sp.): 64 µg/mL (≈ 39.6 µM)
MIC Enterococcus faecalis (GC 4554) (Enterococcus sp.): >64 µg/mL
MIC Enterococcus faecalis (GC 6189) (Enterococcus sp.): 64 µg/mL (≈ 39.6 µM)
MIC Enterococcus faecium (GC 2243) (Enterococcus sp.): 64 µg/mL (≈ 39.6 µM)
MIC Enterococcus faecium (GC 4556) (Enterococcus sp.): >64 µg/mL
MIC Enterococcus faecium (GC 4557) (Enterococcus sp.): 8 µg/mL (≈ 4.95 µM)
MIC Enterococcus faecalis (ATCC 29212) (Enterococcus sp.; inoculum 5×10^5 CFU/mL, strain ATCC 29212): >64 µg/mL
MIC Enterococcus faecalis (GC 2242) (Enterococcus sp.; inoculum 5×10^5 CFU/mL, strain GC 2242): >64 µg/mL
MIC Enterococcus faecium (GC 2243) (Enterococcus sp.; inoculum 5×10^5 CFU/mL, strain GC 2243): 64 µg/mL (≈ 39.6 µM)
MIC Enterococcus faecalis (GC 2691) (Enterococcus sp.; inoculum 5×10^5 CFU/mL, strain GC 2691): >64 µg/mL
MIC Enterococcus faecalis (GC 3059) (Enterococcus sp.; inoculum 5×10^5 CFU/mL, strain GC 3059): >64 µg/mL
MIC Enterococcus faecalis (GC 4552) (Enterococcus sp.; inoculum 5×10^5 CFU/mL, strain GC 4552): >64 µg/mL
MIC Enterococcus faecalis (GC 4553) (Enterococcus sp.; inoculum 5×10^5 CFU/mL, strain GC 4553): 64 µg/mL (≈ 39.6 µM)
MIC Enterococcus faecalis (GC 4554) (Enterococcus sp.; inoculum 5×10^5 CFU/mL, strain GC 4554): >64 µg/mL
MIC Enterococcus faecium (GC 4556) (Enterococcus sp.; inoculum 5×10^5 CFU/mL, strain GC 4556): >64 µg/mL
MIC Enterococcus faecium (GC 4557) (Enterococcus sp.; inoculum 5×10^5 CFU/mL, strain GC 4557): 8 µg/mL (≈ 4.95 µM)
MIC Enterococcus avium (GC 4558) (Enterococcus sp.; inoculum 5×10^5 CFU/mL, strain GC 4558): 16 µg/mL (≈ 9.9 µM)
MIC Enterococcus faecalis (GC 6189) (Enterococcus sp.; inoculum 5×10^5 CFU/mL, strain GC 6189): 64 µg/mL (≈ 39.6 µM)
MIC Escherichia coli (ATCC 25922) (Escherichia coli): 32 µg/mL (≈ 19.8 µM)
MIC Escherichia coli (GC 4559) (Escherichia coli): 64 µg/mL (≈ 39.6 µM)
MIC Escherichia coli (GC 4560) (Escherichia coli): 16 µg/mL (≈ 9.9 µM)
Structure (SMILES): Cc1ccc(Oc2cccc(C3OCC4OC(OC5C(CO)OC(Oc6ccc(CC7NC(=O)C(C(C)c8ccccc8)NC(=O)CNC(=O)C(CO)NC(=O)C(C(O)C8CNC(=N)N8C8OC(CO)C(O)C(O)C8O)NC(=O)C(C(O)C8CNC(=N)N8)NC7=O)cc6I)C(O)C5O)C(O)C(O)C4O3)c2)cc1 (centres unmarked) [Example 197]
MIC Staphylococcus haemolyticus (GC 4546) (Staphylococcus sp.; strain GC 4546): 32 µg/mL (≈ 19.8 µM)

Reference: patent publication US6914045B2, “Glycopeptide antibiotics” (Wyeth Holdings Corporation, priority 2001, dated 2005)
